Consider twelve compounds from ChEMBL document CHEMBL1201862, “PubChem BioAssay data set” (2004).

SMILES strings stand for the structures.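 Dose response: 5 concentrations. Exposure: 48 h. Format: 96-well plates. Endpoint: linear interpolation; highest concentration if not reached. At the GI50, growth is halved.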 Activity calls are given as the source filed them. Cut-off read from the data, not from the text of the source: active = GI50 up to about 1.1 µM and inactive = higher.

Test systems include UACC-257; UO-31; SNB-19; OVCAR-4; MOLT-4; DU-145; DMS-114; MDA-N; BT-549; SK-OV-3; M14; SF-268; SR; SN12C; MDA-MB-231; SF-295; Malme-3M; SNB-75; SK-MEL-5; CAKI-1.
Test in all cases: NCI tumour cell line growth inhibition, 48 h

For `O=C(c1ccc(Cl)cc1)c1cnc(Nc2ccccc2Cl)s1`, the GI50 with UACC-257 was 21 µM (inactive); with UO-31, 21.6 µM (inactive); in the assay with SNB-19, 20.2 µM (inactive); in the assay on OVCAR-4 it was 33.4 µM (inactive); with MOLT-4 it was > 100 µM (inactive); with DU-145 it was 20.3 µM (inactive). In addition, the GI50 in the assay with DMS-114 is 24.7 µM (inactive); in the assay with MDA-N, 21.8 µM (inactive); in the assay with BT-549, 20.7 µM (inactive); in the assay with SK-OV-3, 23 µM (inactive); in the assay on M14, 19.7 µM (inactive); in the assay with SF-268, 26.4 µM (inactive). Moreover, the GI50 was > 100 µM (inactive) with SR; 22.3 µM (inactive) with SN12C; 41.4 µM (inactive) with MDA-MB-231; 21.5 µM (inactive) in the assay with SF-295; 19 µM (inactive) in the assay on Malme-3M; 19.6 µM (inactive) in the assay with SNB-75. Besides, the GI50 in the assay with SK-MEL-5 was 18.5 µM (inactive); in the assay with CAKI-1, 17.3 µM (inactive).

`COC(=O)CCC1CCc2c(OC)ccc(OC)c2C1=O` (stereo unspecified): the GI50 in the assay with UACC-257, in the assay with UO-31, in the assay with SNB-19, with OVCAR-4, with MOLT-4 and with DMS-114 was > 100 µM (inactive) in each case. For the same compound, the GI50 in the assay on SK-OV-3, with M14, in the assay on SF-268, in the assay with SR, with SN12C and in the assay with SF-295 was > 100 µM (inactive) each time. For the same compound, the GI50 in the assay with Malme-3M, in the assay with SNB-75 and in the assay on SK-MEL-5 was > 100 µM (inactive) in each case.

With `Nc1ccc(Sc2c3ccccc3nc3ccccc23)cc1`, the GI50 in the assay with UACC-257 is 16.6 µM (inactive); with UO-31 it was 17.5 µM (inactive); in the assay on SNB-19 it was 22.1 µM (inactive); with OVCAR-4, 12.1 µM (inactive); in the assay on MOLT-4, 3.02 µM (inactive); in the assay on DU-145, 13.7 µM (inactive). Also, the GI50 with DMS-114 was 18.2 µM (inactive); in the assay on MDA-N it was 12.2 µM (inactive); in the assay with BT-549, 14.3 µM (inactive); in the assay with SK-OV-3 it was 22.3 µM (inactive); with M14, 15.7 µM (inactive); in the assay with SF-268, 18.5 µM (inactive). Also, the GI50 in the assay with SR was 3.74 µM (inactive); in the assay on SN12C, 18.5 µM (inactive); with MDA-MB-231 it was 14.7 µM (inactive); in the assay on SF-295, 19.1 µM (inactive); in the assay with Malme-3M, 19.7 µM (inactive); with SNB-75, 17.1 µM (inactive). Besides, the GI50 with SK-MEL-5 was 16.6 µM (inactive); with CAKI-1, 18.5 µM (inactive).

Consider `Cc1ccc(NCCN(C)C)c2c(=O)c3cc(O)ccc3sc12`, for which the GI50 was 8 µM (inactive) in the assay with UACC-257; 4.23 µM (inactive) with UO-31; 2.64 µM (inactive) in the assay on SNB-19; 7.21 µM (inactive) with OVCAR-4; 0.0454 µM (active) in the assay with MOLT-4; 2.18 µM (inactive) with DU-145. The GI50 in the assay with DMS-114 was 11.7 µM (inactive); in the assay with MDA-N it was 2.04 µM (inactive); in the assay with BT-549, 5.4 µM (inactive); with SK-OV-3, 3.33 µM (inactive); in the assay with M14, 4.88 µM (inactive); with SF-268, 4.35 µM (inactive). Besides, the GI50 is 0.241 µM (active) in the assay on SR; 1.94 µM (inactive) in the assay with SN12C; 1.87 µM (inactive) in the assay with MDA-MB-231; 5.27 µM (inactive) with SF-295; 5.28 µM (inactive) with Malme-3M; 1.34 µM (inactive) in the assay on SNB-75. The figures for the GI50 in the assay on SK-MEL-5 and in the assay with CAKI-1 were 2.86 µM (inactive) and 1.31 µM (inactive), respectively.

As to `[N-]=[N+]=NC1C2CC3CC(C2)CC1C3` (stereo unspecified), the GI50 with UACC-257, with UO-31, in the assay with SNB-19, in the assay on OVCAR-4, in the assay with MOLT-4 and in the assay on DMS-114 was > 100 µM (inactive) each time. The GI50 with SK-OV-3, in the assay with M14, with SR, in the assay on SN12C, in the assay on SF-295 and in the assay with Malme-3M was > 100 µM (inactive) throughout. The GI50 in the assay with SNB-75, in the assay on SK-MEL-5 and in the assay with CAKI-1 was > 100 µM (inactive) throughout.

On to `COc1cc([C@@H]2c3cc4c(cc3[C@@H](NC(=O)c3cccc([N+](=O)[O-])c3)C3COC(=O)[C@@H]32)OCO4)cc(OC)c1O` (stereo partly specified), for which the GI50 in the assay on UACC-257 is 6.18 µM (inactive); in the assay with UO-31, 3.89 µM (inactive); in the assay on SNB-19 it was 0.366 µM (active); with OVCAR-4, 10.5 µM (inactive); in the assay with MOLT-4, 0.0145 µM (active); with DMS-114, 0.548 µM (active). Also, the GI50 in the assay on SK-OV-3 is 0.329 µM (active); with M14, 0.621 µM (active); in the assay with SF-268, 0.552 µM (active); with SN12C, 0.211 µM (active); with SF-295, 0.245 µM (active); with Malme-3M, 0.543 µM (active). Further, the GI50 in the assay on SNB-75 was 1.31 µM (inactive); with SK-MEL-5, 0.452 µM (active); with CAKI-1 it was 0.237 µM (active).

As to `O=C(O)/C(Cl)=C(/Cl)C(=O)Nc1cccc(Cl)c1`, the GI50 is 18 µM (inactive) with UACC-257; 18.5 µM (inactive) in the assay with UO-31; 31.7 µM (inactive) in the assay on SNB-19; 18.2 µM (inactive) in the assay with OVCAR-4; 4.28 µM (inactive) with MOLT-4; > 100 µM (inactive) with DU-145. Further, the GI50 in the assay on DMS-114 was 16.6 µM (inactive); in the assay on MDA-N it was 17.3 µM (inactive); with BT-549, 19.4 µM (inactive); with SK-OV-3 it was 15.7 µM (inactive); with M14 it was 18.6 µM (inactive); in the assay with SF-268, 22.4 µM (inactive). Moreover, the GI50 was 8.24 µM (inactive) in the assay with SR; 20 µM (inactive) in the assay on SN12C; 14.6 µM (inactive) with MDA-MB-231; 30.5 µM (inactive) with SF-295; 16.9 µM (inactive) in the assay on Malme-3M; 17.9 µM (inactive) in the assay with SNB-75. Also, the figures for the GI50 in the assay on SK-MEL-5 and with CAKI-1 were 19 µM (inactive) and 7.33 µM (inactive), respectively.

Consider `C[C@]12CCC(=O)C=C1CC[C@@H]1C2CC[C@@]2(C)C1CC[C@@H]2OC(=O)C12OC1CCC2=O` (stereo partly specified), for which the GI50 with UACC-257 is 18 µM (inactive); with UO-31 it was 16.5 µM (inactive); in the assay on SNB-19, 19.6 µM (inactive); in the assay with OVCAR-4 it was 21.6 µM (inactive); in the assay with MOLT-4 it was 10.1 µM (inactive); in the assay with DMS-114, 17.7 µM (inactive). In addition, the GI50 is 41.7 µM (inactive) in the assay with SK-OV-3; 18.5 µM (inactive) in the assay on M14; 20 µM (inactive) in the assay with SF-268; 17.1 µM (inactive) in the assay with SR; 23.2 µM (inactive) with SN12C; 16.7 µM (inactive) in the assay on SF-295. The GI50 was 19.1 µM (inactive) in the assay with Malme-3M, 16.7 µM (inactive) in the assay on SNB-75 and 16.2 µM (inactive) with SK-MEL-5.

As for `CC(C)(C)c1nc2c(o1)C(=O)c1ccccc1C2=O`, the GI50 in the assay with UACC-257 is 0.519 µM (active); in the assay on UO-31, 2.81 µM (inactive); in the assay with SNB-19, 5.19 µM (inactive); in the assay on OVCAR-4, 0.853 µM (active); in the assay on MOLT-4, 1.76 µM (inactive); with DU-145, 1.1 µM (active). Also, the GI50 with DMS-114 is 2.23 µM (inactive); in the assay with MDA-N, 0.199 µM (active); in the assay on BT-549, 1.51 µM (inactive); in the assay with SK-OV-3 it was 4.98 µM (inactive); in the assay with M14, 0.759 µM (active); in the assay with SF-268, 2.47 µM (inactive). The GI50 in the assay with SR is 3.16 µM (inactive); in the assay with SN12C it was 0.959 µM (active); in the assay with MDA-MB-231, 0.385 µM (active); with SF-295, 1.93 µM (inactive); in the assay on Malme-3M, 0.574 µM (active); in the assay with SNB-75, 2.96 µM (inactive). For the same compound, the figures for the GI50 with SK-MEL-5 and in the assay with CAKI-1 were 0.437 µM (active) and 2.78 µM (inactive), respectively.

Consider `COC(=O)C12C3C4C1C1C2C3C41C(=O)OC(C)(C)C` (stereo unspecified), for which the GI50 in the assay on UACC-257 is > 100 µM (inactive); with UO-31 it was > 100 µM (inactive); in the assay with SNB-19, > 100 µM (inactive); in the assay with OVCAR-4 it was > 100 µM (inactive); with MOLT-4, > 100 µM (inactive); in the assay with DMS-114, > 44.8 µM (inactive). Also, the GI50 in the assay with SK-OV-3 is > 100 µM (inactive); with M14, > 100 µM (inactive); in the assay with SF-268, > 100 µM (inactive); in the assay on SR, 19.2 µM (inactive); in the assay on SN12C, > 100 µM (inactive); in the assay on SF-295, > 100 µM (inactive). The GI50 in the assay with Malme-3M, in the assay with SNB-75, with SK-MEL-5 and in the assay with CAKI-1 was > 100 µM (inactive) each time.

For the compound `COC(=O)C(C(=O)C(=O)Nc1cccc(O)c1)c1nc2ccc(Cl)cc2nc1O` (stereo unspecified), the GI50 in the assay on UACC-257, in the assay on UO-31, with SNB-19, in the assay on OVCAR-4, in the assay on MOLT-4 and with DMS-114 was > 100 µM (inactive) throughout. Besides, the GI50 in the assay on SK-OV-3, in the assay on M14, in the assay with SF-268, in the assay on SN12C, in the assay with SF-295 and with Malme-3M was > 100 µM (inactive) in each case. Besides, the GI50 in the assay on SNB-75 is 84.1 µM (inactive); in the assay with SK-MEL-5, > 100 µM (inactive); with CAKI-1 it was > 100 µM (inactive).

In the case of `Cc1cc2c(=O)cc(-c3ccc(C(F)(F)F)cc3)oc2c(C(=O)O)c1C`, the GI50 in the assay with UACC-257, in the assay on UO-31, in the assay on SNB-19, in the assay on OVCAR-4, with MOLT-4 and with DMS-114 was > 100 µM (inactive) each time. In addition, the GI50 with SK-OV-3, in the assay on M14, in the assay with SF-268, in the assay with SN12C, in the assay with SF-295 and with Malme-3M was > 100 µM (inactive) throughout. The GI50 with SNB-75, with SK-MEL-5 and in the assay with CAKI-1 was > 100 µM (inactive) in each case.
